According to the Kinase Knowledgebase extract (Sharma et al. 2016):

Key:
PIK3CA (human) [1] = biological target: PIK3CA (human) (UniProt P42336); test: Inhibition of PIK3CA Kinase Activity
PIK3CA (human) [2] = biological target: PIK3CA (human) (UniProt P42336); test: Inhibition of A2780 Cell Proliferation

Chain of PIK3CA (human) (P42336 whole entry, looked up): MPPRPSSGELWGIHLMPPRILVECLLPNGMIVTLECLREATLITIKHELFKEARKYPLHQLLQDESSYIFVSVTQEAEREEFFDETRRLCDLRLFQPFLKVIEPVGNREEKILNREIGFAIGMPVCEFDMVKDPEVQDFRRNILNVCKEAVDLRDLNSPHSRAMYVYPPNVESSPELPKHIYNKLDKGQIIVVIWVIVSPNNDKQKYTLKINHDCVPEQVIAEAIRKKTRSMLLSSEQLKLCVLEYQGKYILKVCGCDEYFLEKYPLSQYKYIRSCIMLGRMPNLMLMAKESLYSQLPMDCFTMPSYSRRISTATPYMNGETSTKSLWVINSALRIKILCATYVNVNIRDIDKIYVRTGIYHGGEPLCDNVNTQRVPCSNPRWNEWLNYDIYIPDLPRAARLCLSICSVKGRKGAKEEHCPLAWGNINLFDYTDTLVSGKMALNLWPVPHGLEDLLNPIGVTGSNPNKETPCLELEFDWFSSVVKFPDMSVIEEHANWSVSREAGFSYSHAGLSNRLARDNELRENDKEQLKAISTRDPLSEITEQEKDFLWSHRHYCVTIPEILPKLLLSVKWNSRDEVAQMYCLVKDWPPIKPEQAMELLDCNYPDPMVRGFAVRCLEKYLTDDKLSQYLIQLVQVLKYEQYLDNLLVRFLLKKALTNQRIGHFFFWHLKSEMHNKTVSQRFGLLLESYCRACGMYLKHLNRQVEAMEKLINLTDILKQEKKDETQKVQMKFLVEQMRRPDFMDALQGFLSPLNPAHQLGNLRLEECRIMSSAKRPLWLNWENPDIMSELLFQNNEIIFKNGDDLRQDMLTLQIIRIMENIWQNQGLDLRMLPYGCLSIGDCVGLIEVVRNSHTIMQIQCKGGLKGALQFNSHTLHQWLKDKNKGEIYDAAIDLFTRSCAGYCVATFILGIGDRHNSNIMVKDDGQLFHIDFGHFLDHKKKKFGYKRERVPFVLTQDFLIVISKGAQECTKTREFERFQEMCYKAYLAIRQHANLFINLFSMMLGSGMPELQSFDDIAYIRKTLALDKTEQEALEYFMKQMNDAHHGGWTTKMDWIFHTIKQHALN

| SMILES | IC50 (PIK3CA (human) [1]) [µM] | EC50 (PIK3CA (human) [2]) [µM] |
| --- | --- | --- |
| CC(=O)Nc1cn2cc(-c3cnc(N)c(N4CCN(C)CC4)n3)ccc2n1 | < 1 | < 10 |
| Nc1ncc(-c2ccc3nc(NC(=O)C4CNC4)cn3n2)cc1C(F)(F)F | < 1 | < 10 |
| CC(=O)Nc1cn2cc(-c3cnc(N)c(C)n3)ccc2n1 | < 1 | < 10 |
| N#Cc1ccc(C(=O)Nc2cn3cc(-c4cnc(N)c(C(F)(F)F)c4)ccc3n2)cc1 | < 1 | < 25 |
| COc1cccc(-c2cc(-c3ccc4nc(NC(C)=O)cn4n3)cnc2N)n1 | < 1 | < 10 |
| Nc1ncc(-c2ccc3nc(NC(=O)CCCO)cn3c2)cc1C(F)(F)F | < 1 | < 10 |
| CC(=O)Nc1cn2cc(-c3cnc(N)c(N4CCOCC4)n3)ccc2n1 | < 1 | < 10 |
| CCCc1c(NC(C)=O)nc2ccc(-c3cnc(N)c(C(F)(F)F)c3)cn12 | < 1 | < 25 |
| CNCC(=O)Nc1cn2nc(-c3cnc(N)c(C(F)(F)F)c3)ccc2n1 | < 1 | < 1 |
| CC(=O)Nc1cn2nc(-c3cnc(N)c(-c4ccc(C(F)(F)F)cc4)c3)ccc2n1 | < 1 | < 1 |
| Nc1ccc(-c2ccc3nc(NC(=O)OCCN4CCOCC4)sc3c2)cn1 | < 1 | < 25 |
| CC(=O)Nc1cn2cc(-c3cnc(N)c(C(=O)N4CCNCC4)c3)ccc2n1 | < 1 | < 25 |
| CC(=O)NC1CCN(C(=O)Nc2cn3cc(-c4cnc(N)c(C(F)(F)F)c4)ccc3n2)C1 (configuration not stated) | < 1 | < 25 |
| CC(=O)Nc1cn2cc(-c3cnc(N)c(OCC4CCN(C)CC4)n3)ccc2n1 | < 1 | < 10 |
| COCCOc1nc(-c2ccc3nc(NC(C)=O)sc3c2)cnc1N | < 1 | < 10 |
| CC(=O)Nc1cn2cc(-c3cnc(N)c(-c4ccc(N5CCOCC5)cc4)c3)ccc2n1 | < 10 | < 10 |
| Nc1ncc(-c2ccc3nc(NC(=O)CCCN4CCCCC4)cn3c2)cc1C(F)(F)F | < 1 | < 10 |
| Nc1ncc(-c2ccc3nc(NC(=O)CO[C@@H]4CCNC4)cn3n2)cc1C(F)(F)F | < 1 | < 1 |
| NC(=O)N1CC[C@H]1C(=O)Nc1cn2cc(-c3cnc(N)c(C(F)(F)F)c3)ccc2n1 | < 1 | < 25 |
| CCN(CC)C(=O)c1cc(-c2ccc3nc(NC(C)=O)cn3c2)cnc1N | < 1 | < 10 |
| Nc1ncc(-c2ccc3nc(NC(=O)N4CC[C@H](O)C4)cn3c2)cc1C(F)(F)F | < 1 | < 10 |
